Assay results: US8153658B2, “Piperidine derivative or salt thereof” (Astellas Pharma, Inc., priority 2006, dated 2012)
Counter-ions that a name gives are not always drawn. Like-named read-outs stand apart in the source and are kept apart here.

Tests used:
[1] = Measurement of rat plasma calcium concentration; type: in vivo; conditions: read-out: Rat plasma calcium concentration reducing ratio (%) 2 hours after administration (3 mg/kg)
Protocol: Test 2. Measurement of Rat Plasma Calcium Concentration and Plasma PTH Concentration
The compounds of the present invention were administered to rats, and their influences upon the plasma calcium concentration and the plasma PTH concentration were examined. The test was carried out by single oral administration of the compounds of the present invention and the control compounds to 5 to 6 normal male rats, or male rats with renal failure, respectively As a vehicle group, 0.5% of a methyl cellulose (MC) solution was administered at a dose of 5 ml/kg. As a reference compound, cinacalcet was dissolved in the MC solution and administered at a dose of 3 mg/kg. Each of the compounds of the present invention was dissolved or suspended in the MC solution, and administered at a dose of 1, 3 or 10 mg/kg.
Blood samples were collected from the orbital venous plexus under ether anesthesia before the administration and 2 hours, 4 hours, or 8 hours in some cases, after the administration, and the plasma calcium concentration was measured using Calcium E-Test Wako (manufactured by Wako Pure Chemical Industries), and the plasma PTH concentration was measured using a Rat Intact PTH ELISA Kit (manufactured by Immutopics).

human CaSR = biological target: T1, human CaSR (Homo sapiens, UniProt P41180); assay: Human calcium sensing receptor (CaSR) agonism test (Fluo-3 / FLIPR); type: cell-based; conditions: HEK 293 cell stably expressing human CaSR; 0.5 mM Ca2+; 2 mM Ca2+ group = 100%; read-out: EC50 (compound concentration showing 50% human CaSR agonistic activity)
T1 construct: a human CaSR open reading frame (ORF) was contained in the pcDNA3.1/Zeo(+) vector; expressed in transfected cells
T1 sequence (P41180 20-1078): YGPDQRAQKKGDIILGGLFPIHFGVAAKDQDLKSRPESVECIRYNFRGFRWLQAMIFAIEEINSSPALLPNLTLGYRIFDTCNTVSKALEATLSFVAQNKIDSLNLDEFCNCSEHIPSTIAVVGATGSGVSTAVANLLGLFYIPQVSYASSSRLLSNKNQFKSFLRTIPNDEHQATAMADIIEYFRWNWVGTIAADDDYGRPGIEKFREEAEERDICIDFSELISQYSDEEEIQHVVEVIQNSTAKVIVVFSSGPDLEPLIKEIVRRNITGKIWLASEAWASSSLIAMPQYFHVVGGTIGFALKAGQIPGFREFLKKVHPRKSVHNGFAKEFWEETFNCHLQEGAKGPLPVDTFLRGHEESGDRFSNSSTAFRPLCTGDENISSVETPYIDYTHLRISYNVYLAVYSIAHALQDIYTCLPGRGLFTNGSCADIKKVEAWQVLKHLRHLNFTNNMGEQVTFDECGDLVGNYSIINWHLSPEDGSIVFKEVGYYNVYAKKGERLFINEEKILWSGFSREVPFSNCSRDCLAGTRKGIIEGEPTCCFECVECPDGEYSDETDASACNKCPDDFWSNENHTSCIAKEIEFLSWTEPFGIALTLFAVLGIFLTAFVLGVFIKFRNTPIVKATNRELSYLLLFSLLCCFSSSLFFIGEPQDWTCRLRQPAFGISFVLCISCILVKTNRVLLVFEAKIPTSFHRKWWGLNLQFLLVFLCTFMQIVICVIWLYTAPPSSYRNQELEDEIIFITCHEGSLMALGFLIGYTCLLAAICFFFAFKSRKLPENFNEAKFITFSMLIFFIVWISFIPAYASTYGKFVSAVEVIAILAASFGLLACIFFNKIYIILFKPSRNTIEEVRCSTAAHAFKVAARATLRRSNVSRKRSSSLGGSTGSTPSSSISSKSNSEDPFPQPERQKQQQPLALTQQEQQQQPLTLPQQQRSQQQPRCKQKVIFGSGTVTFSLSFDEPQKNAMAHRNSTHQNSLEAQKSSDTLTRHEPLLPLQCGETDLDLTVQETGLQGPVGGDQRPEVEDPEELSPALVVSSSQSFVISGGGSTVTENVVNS
From the text: Test 1. Human calcium sensing receptor (CaSR) agonism test
1) Preparation of Human CaSR Expression Vector
A DNA fragment coding for human CaSR was cloned in the standard method.
Illustratively, using 203 to 2387 of NM_000388 as a DNA fragment D4, and 2210 to 3633 as a DNA fragment B2, they were amplified using a human kidney cDNA (manufactured by Invitrogen) as the template and using a DNA polymerase (a registered trade name: Pyrobest, manufactured by Takara Bio), and respectively cloned into a pCR2.1 vector using a pCR2.1-Topo vector (manufactured by Invitrogen). Next, the DNA fragments prepared by digesting the pCR2.1-D4 with SpeI and XbaI were inserted into the same sites of pcDNA3.1/Zeo(+) vector. Successively, the fragments prepared by digesting pCR2.1-B2 with SacI and XbaI were inserted into the SacI and XbaI sites of previously prepared pcDNA3.1/Zeo(+)-D4(SpeI-XbaI), thereby obtaining a human CaSR expression vector pcDNA3.1/Zeo(+)-hCaSR in which a human CaSR open reading frame (ORF) was contained in the pcDNA3.1/Zeo(+) vector.
2) Preparation of Human CaSR Expression Cell
The human CaSR expression vector was transferred into a HEK 293 cell using a transfection reagent (registered trademark: FuGene 6, manufactured by Roche Diagnostics). After the gene transfer, this was cultured in a DMEM (manufactured by Invitrogen) medium containing 40 μg/ml Zeocin (registered trademark, manufactured by Invitrogen) and a 10% fetal bovine serum at 37° C. for 2 weeks in the presence of 5% CO2, thereby obtaining Zeocin-resistant clones. A human CaSR stably expressing HEK 293 clone was obtained from these clones by selection using the responsiveness to extracellular Ca^2+ as an index.
3) Human CaSR Agonism Test
The HEK 293 cell stably expressing human CaSR was inoculated into a poly-D-lysine-coated black clear bottom 96 well plate (manufactured by BD Biosciences). Hanks' balanced salt solution (HBSS) (Ca^2+ (−), Mg^2+ (−), manufactured by Invitrogen) containing a 20 mM HEPES (2-[4-(2-hydroxyethyl)-1-piperazinyl]ethanesulfonic acid) buffer (pH 7.4), 2.5 mM of probenecid (manufactured by Sigma), and 0.1% of bovine serum albumin was prepared as a washing buffer. After the inoculation and the subsequent overnight culturing, the medium was discarded, the washing buffer supplemented with 1 mM CaCl2 and 10 μM Fluo-3 AM (trade name, manufactured by DOJINDO) was added thereto in 100 μl per well portions, and then the incubation was carried out at 37° C. for 1 hour in the presence of 5% CO2. This was washed twice with 200 μl of the washing buffer, replaced by 100 μl of the washing buffer supplemented with 0.5 mM CaCl2 and allowed to stand still for 10 minutes, and then the responsiveness to each compound to be evaluated was detected using a plate reader for fluorometry image analysis use (registered trademark: FLIPR, manufactured by Molecular Devices). In this connection, the compound to be evaluated was used by optionally diluting with the washing buffer supplemented with 0.5 mM Ca^2+.
The human CaSR agonistic activity strength of each compound to be evaluated was calculated by defining the solvent group as 0% and the 2 mM of Ca^2+ in the final concentration group as 100%, and the compound concentration showing 50% activity (EC50) was calculated from a concentration-activity curve by the method of least squares.

CYP2D6 = CYP2D6 (Homo sapiens, UniProt P10635); assay: Human CYP2D6 inhibition test; type: biochemical; parameters: purchased BD Gentest 456217; conditions: CYP2D6 7.5 pmol/mL; fluorescence substrate AMMC 1.5 μM; 37° C. 30 minutes
Protocol: Test 3. Human CYP2D6 Inhibition Test
Inhibitory activity evaluation for CYP2D6 was carried out by measuring it in accordance, roughly, with a reference (“Drug Metabolism and Disposition”, 2001, vol. 29, p. 1196-1200).
Final concentrations of the reagents in the enzyme reaction solution were respectively set to CYP2D6=7.5 pmol/mL (manufactured by BD Gentest, Catalog No. 456217), reduced type nicotinamide adenine dinucleotide phosphate (NADPH) regeneration system (0.0081 mM nicotinamide adenine dinucleotide phosphate (NADP+), 0.41 mM glucose-6-phosphate, 0.41 mM MgCl2, 0.4 units glucose-6-phosphate dehydrogenase), and a fluorescence substrate AMMC=1.5 μM, 100 mM potassium phosphate buffer (pH 7.4). Each compound was made into a 50% acetonitrile solution and added to the enzyme reaction solution (acetonitrile final concentration 2.5%). The enzyme reaction was carried out at 37° C. for 30 minutes, the reaction was stopped using a stopping liquid (0.1 M tris(hydroxymethyl)aminomethane (Tris-base):acetonitrile=20:80), and the fluorescence intensity was then measured. The concentration showing 50% inhibition (IC50) was calculated from the thus obtained fluorescence intensity, by defining the enzyme activity at a time of no compound addition as 100%.

[2] = normal male rats, single oral administration 3 mg/kg, 2 hours after administration

CYP2D6, sequence (P10635 whole entry): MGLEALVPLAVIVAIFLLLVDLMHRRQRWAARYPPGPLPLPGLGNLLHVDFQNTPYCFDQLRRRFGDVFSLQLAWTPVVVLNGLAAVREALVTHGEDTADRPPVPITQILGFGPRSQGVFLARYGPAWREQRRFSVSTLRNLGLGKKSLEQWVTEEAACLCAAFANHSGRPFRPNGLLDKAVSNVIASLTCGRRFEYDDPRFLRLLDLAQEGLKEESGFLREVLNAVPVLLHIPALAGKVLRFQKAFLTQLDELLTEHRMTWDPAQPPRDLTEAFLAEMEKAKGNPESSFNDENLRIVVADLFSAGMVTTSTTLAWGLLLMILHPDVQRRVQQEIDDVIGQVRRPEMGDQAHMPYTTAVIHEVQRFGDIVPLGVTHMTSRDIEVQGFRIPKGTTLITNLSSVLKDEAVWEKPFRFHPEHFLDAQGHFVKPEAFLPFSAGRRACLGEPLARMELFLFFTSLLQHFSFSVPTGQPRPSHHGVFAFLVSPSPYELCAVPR

SMILES | EC50 (human CaSR) | IC50 (CYP2D6) | inhibition in vivo at 3 mg/kg [1, 2] | inhibition in vivo at 3 mg/kg ([1]; po, 2 h)
C[C@@H](NCC1CCN(c2ncc(C(=O)O)cc2Cl)CC1c1ccccc1F)c1cccc2ccccc12 (stereo partly drawn) [Example 32, 5-chloro-6-[3-(2-fluorophenyl)-4-({[(1R)-1-(1-naphthyl)ethyl]amino}methyl)piperidin-1-yl]nicotinic acid hydrochloride] | 7.5 nM |  | 34% | 
C[C@@H](NCC1CCN(c2c(F)cc(-c3nnn[nH]3)cc2F)CC1c1ccccc1)c1cccc2ccccc12 (stereo partly drawn) [Example 53, (1R)—N-({1-[2,6-difluoro-4-(1H-tetrazol-5-yl)phenyl]-3-phenylpiperidin-4-yl}methyl)-1-(1-naphthyl)ethaneamine hydrochloride] | 3.8 nM |  | 20% | 
C[C@@H](NCC1CCN(C(=O)Oc2ccc(C(=O)O)cc2)CC1c1ccccc1)c1cccc2ccccc12 (stereo partly drawn) [Example 25, 4-({[4-({[(1R)-1-(1-naphthyl)ethyl]amino}methyl)-3-phenylpiperidin-1-yl]carbonyl}oxy)benzoic acid hydrochloride] | 13 nM | ≥ 20000 nM |  | 17%
COc1cccc([C@@H](C)NCC2CCN(c3ncc(C(=O)O)cc3Cl)CC2c2ccccc2)c1 (stereo partly drawn) [Example 33, 5-chloro-6-[4-({[(1R)-1-(3-methoxyphenyl)ethyl]amino}methyl)-3-phenylpiperidin-1-yl]nicotinic acid hydrochloride] | 20 nM |  | 29% | 
C[C@@H](NCC1CCN(c2c(F)cc(C(=O)O)cc2F)CC1c1ccccc1)c1csc2ccccc12 (some centres unmarked) [Example 87] | 11 nM | ≥ 20000 nM |  | 
C[C@@H](NCC1CN(C(=O)Nc2ccc(C(=O)O)cc2)CCC1c1cccc(F)c1)c1cccc2ccccc12 (stereo partly drawn) [Example 13, 4-({[4-(3-fluorophenyl)-3-({[(1R)-1-(1-naphthyl)ethyl]amino}methyl)piperidin-1-yl]carbonyl}amino)benzoic acid hydrochloride] | 2.9 nM | ≥ 20000 nM |  | 
COc1cc(C(=O)O)ccc1NC(=O)N1CCC(c2ccccc2)C(CN[C@H](C)c2cccc3ccccc23)C1 (stereo partly drawn) [Example 3, 3-methoxy-4-({[3-({[(1R)-1-(1-naphthyl)ethyl]amino}methyl)-4-phenylpiperidin-1-yl]carbonyl}amino)benzoic acid] | 1.8 nM | ≥ 20000 nM |  | 
C[C@@H](NCC1CCN(c2cc(C(F)(F)F)c(C(=O)O)cn2)CC1c1cccc(F)c1)c1cccc2ccccc12 (some centres unmarked) [Example 98] | 17 nM | ≥ 20000 nM |  | 

Now from value to compound, other results behind:

EC50 (human CaSR) | IC50 (CYP2D6) | SMILES | inhibition in vivo at 3 mg/kg [1, 2] | inhibition in vivo at 3 mg/kg ([1]; po, 2 h)
5 nM |  | C[C@@H](NCC1CCN(c2ncc(C(=O)O)cc2Cl)CC1c1ccccc1)c1cccc2ccccc12 (stereo partly drawn) [Example 31, 5-chloro-6-[4-({[(1R)-1-(1-naphthyl)ethyl]amino}methyl)-3-phenylpiperidin-1-yl]nicotinic acid hydrochloride] | 24% | 
5.5 nM | ≥ 20000 nM | C[C@@H](NCC1CCN(c2cccc(C(=O)O)n2)CC1c1ccccc1)c1cccc2ccccc12 (stereo partly drawn) [Example 30, 6-[4-({[(1R)-1-(1-naphthyl)ethyl]amino}methyl)-3-phenylpiperidin-1-yl]pyridine-2-carboxylic acid hydrochloride] |  | 
8.1 nM | ≥ 20000 nM | C[C@@H](NCC1CCN(c2cccc(C(=O)O)c2)CC1c1ccccc1)c1cccc2ccccc12 (stereo partly drawn) [Example 34, 3-[4-({[(1R)-1-(1-naphthyl)ethyl]amino}methyl)-3-phenylpiperidin-1-yl]benzoic acid hydrochloride] |  | 
14 nM |  | C[C@@H](NCC1CCN(c2ccc(C(=O)O)cn2)CC1c1ccccc1F)c1cccc2ccccc12 (some centres unmarked) [Example 104] |  | 
2.6 nM |  | C[C@@H](NCC1CCN(c2nc(C(=O)O)cs2)CC1c1ccccc1)c1cccc2ccccc12 (stereo partly drawn) [Example 39, 2-[4-({[(1R)-1-(1-naphthyl)ethyl]amino}methyl)-3-phenylpiperidin-1-yl]-1,3-thiazole-4-carboxylic acid hydrochloride] | 23% | 
